“And” between values parts separate entries of the source, which are not always exact repeats. Equal values may be shown once. Read-outs that look alike come from different tables or passages of the source.
Assays:
[1] = system: T. b. brucei Lister 427 (wild-type); test: Drug susceptibility test, Lister 427WT (resazurin); format: cell-based; settings: Trypanosoma brucei, read-out: Lister-427 EC50
Protocol: (§1) Fluorescence was determined using a FLUOstar Optima (BMG Labtech, Durham, N.C.) and the results fitted to a sigmoid curve with variable slope using Prism 5.0 (GraphPad, San Diego, Ca).

T. b. brucei B48 = test: microbe, parasite or virus in culture; format: cell-based, Trypanosoma brucei brucei; settings: for EC50: Trypanosoma brucei, read-out: B48 EC50; for RF (resistance factor) B48: ratio of EC50 between B48 and Lister-427
Protocol: as §1

T. b. brucei ISMR1 = test: microbe, parasite or virus in culture; format: cell-based, Trypanosoma brucei brucei; settings: for EC50: Trypanosoma brucei, read-out: ISMR1 EC50; for RF (resistance factor) ISMR1: ratio of EC50 between ISMR1 and Lister-427
Protocol: as §1

T. b. brucei TbAT1-KO = test: microbe, parasite or virus in culture; format: cell-based, Trypanosoma brucei brucei; settings: for EC50: Trypanosoma brucei, read-out: TbAT1-KO EC50; for RF (resistance factor) TbAT1-KO: ratio of EC50 between TbAT1-KO and Lister-427
Protocol: as §1

T. brucei Squib 427 = test: In vitro drug susceptibility, T. brucei Squib 427 (resazurin); format: cell-based, Trypanosoma brucei brucei; settings: for selectivity index (SI) for T. b. brucei: MRC-5 versus T. b. brucei
Protocol: (§2) All trypanosome strains were cultured in the standard HMI-9 medium supplemented with 10% fetal bovine serum (FBS) at 37° C. in a 5% CO2 atmosphere.

[2] = system: T. b. rhodesiense STIB-900; test: In vitro drug susceptibility, T. b. rhodesiense STIB-900 (resazurin); format: cell-based, Trypanosoma brucei rhodesiense
Protocol: as §2

[3] = Cytotoxicity against MRC-5 fibroblasts; settings: human
Protocol: (§3) Cytotoxicity was assayed against MRC-5 fibroblasts. Results are depicted in Tables 4 and 5.

[4] = system: T. cruzi Tulahuen CL2 β galactosidase strain; test: T. cruzi Tulahuen CL2 β galactosidase strain on MRC-5SV2 cells (CPRG); format: cell-based, Trypanosoma cruzi
Protocol: All cultures and assays were conducted at 37° C./5% CO2. […] The results were expressed as % reduction in parasite burdens compared to control wells from which an EC50 was calculated.

[5] = system: T. vaginalis trophozoites (metronidazole susceptible G3 strain); test: Trichomonas vaginalis in vitro assay; format: cell-based; settings: average of 2-5 independent replicates
Protocol: T. vaginalis trophozoites (metronidazole susceptible G3 strain) were grown in vitro in modified Diamond's media (MDM) with 10% heat inactivated horse serum (HIHS) acquired from Gibco Life Technologies. After medium preparation, the pH was adjusted to 6.3-6.4 employing 1.0 M aq. HCl. Parasites cultures were passaged every day by taking 1 mL of cell culture into a 25 mL bottle of fresh media to ensure the cells were kept at the appropriate concentration of ˜2×10^6 cells/mL. The culture flasks were filled completely and tightly capped to provide the cells with an anaerobic environment. The parasites were maintained in incubation at 37° C. When culturing in multiwell plates, the plates were sealed with Nescofilm® and inserted in BD GasPak EZ pouches (BD Diagnostics, UK) in order to create anaerobic conditions. Assays were performed with 5×10^4 trophozoites/well (100 μL) to which compound dilutions were added (100 μL). Outside wells of columns and rows were filled with 200 μL of sterile water. Plates were sealed with Nescofilm® and incubated under anaerobic conditions as described above. After 24 h, 30 μL of assay dye solution (resorufin) was added, and incubated for 1-2 h before being read using Fluostar Optima (BMG Labtech, UK) at an excitation wavelength of 544 nm and an emission wavelength of 620 nm.

MRC-5 fibroblasts = test: Cytotoxicity against MRC-5 fibroblasts; settings: read-out: MRC-5 EC50, cytotoxicity
Protocol: as §3

T. b. brucei Squib 427 = test: In vivo antiparasitic activity in mice (T. brucei; acute model); parameters: species or system Trypanosoma brucei brucei; settings: for clinical symptoms of trypanosomiasis / parasitemia: infected mice, 5 consecutive days, test compound 25 mg/kg PO b.i.d. (FH7429_D also 10 mg/kg s.i.d. IP), suramin 10 mg/kg
Protocol: The test compound of the invention was formulated in 10% (V/V) PEG400 in water at 2 mg/mL and was freshly prepared at every administration. The test compound was administered orally (PO) b.i.d. for 5 days at 25 mg/kg. The reference drug suramin was formulated in PBS at 2.5 mg/mL and administered s.i.d. IP for 5 days at 10 mg/kg. Treatment was initiated ½ hour prior to the IP infection.

[6] = Trypanosoma brucei, read-out: T.b. brucei EC50, Table 4, average of 2-6 independent determinations
[7] = Trypanosoma brucei, RHODESIENSE, read-out: T.b. rhod. EC50
[8] = MRC-5 fibroblasts, MRC-5 EC50, Table 4, cytotoxicity
[9] = MRC-5 fibroblasts, MRC-5 EC50, Table 5, cytotoxicity
[10] = Trypanosoma cruzi, TULAHUEN, MRC-5 SV2, Table 5, average of 2-4 independent replicates
[11] = Trypanosoma brucei, read-out: EC50 against T. brucei
[12] = Table 1, average of 2-4 independent determinations, read-out: T. brucei brucei EC50
[13] = Table 1, average of 2-4 independent determinations, read-out: T. brucei rhod. EC50
[14] = Table 2, average of 2-3 independent replicates

SMILES | EC50 (T. b. brucei B48) | EC50 (T. b. brucei ISMR1) | EC50 (T. b. brucei TbAT1-KO) | RF (resistance factor) TbAT1-KO (T. b. brucei TbAT1-KO) | EC50 (T. brucei Squib 427; [6]) | EC50 [2, 7] | EC50 [3, 8] | EC50 [3, 9] | EC50 [4, 10] | EC50 ([5]; Trichomonas vaginalis, Table 6) | also measured
N=C(N)c1ccc(/N=N/Nc2ccc(C(=N)N)cc2)cc1 [Diminazene] | 7.2 ± 1.6 µM | 2.9 ± 0.42 µM | 4.5 ± 0.9 µM | 10.6 | – | – | – | – | – | – | EC50 [1]: 0.42 ± 0.064 µM; RF (resistance factor) ISMR1 (T. b. brucei ISMR1): 6.9
Nc1ncnc2c1c(-c1ccc(Cl)c(Cl)c1)cn2[C@@H]1O[C@H](CO)[C@@H](O)[C@H]1O [FH3147, 4-amino-5-(3,4-dichlorophenyl)-N7-(β-D-ribofuranosyl)-pyrrolo[2,3-d]pyrimidine] | – | – | – | – | 3.07 µM | 0.32 µM | 14.7 µM | 14.7 µM | 0.19 µM | 0.02 µM | selectivity index (SI) for T. b. brucei (T. brucei Squib 427): ~5; melting point: 221 to 223 °C
Nc1ncnc2c1ccn2[C@@H]1O[C@H](CO)[C@@H](O)[C@H]1O [FH5284, tubercidin] | 4.3 ± 1.3 µM | 1.7 ± 0.5 µM | 2.6 ± 0.7 µM | > 17 and 17.2 | 0.48 µM | – | – | – | 0.34 µM | – | EC50 [3]: 2.23 µM; EC50 [1]: 0.15 ± 0.03 µM
Nc1ncnc2c1c(-c1cccc(Cl)c1)cn2[C@@H]1O[C@H](CO)[C@@H](O)[C@H]1O [FH8459, 4-amino-5-(3-chlorophenyl)-N7-(β-D-ribofuranosyl)-pyrrolo[2,3-d]pyrimidine] | – | – | – | – | 9.9 µM | 6.88 µM | 32.8 µM | 32.8 µM | 1.42 µM | 0.24 µM | EC50 (T. brucei Squib 427; [11]): < 10 µM; melting point: 135 °C
Nc1ncnc2c1c(-c1ccc3ccccc3c1)cn2[C@@H]1O[C@H](CO)[C@@H](O)[C@H]1O [FH8461, 4-amino-5-(2-naftyl)-N7-(β-D-ribofuranosyl)-pyrrolo[2,3-d]pyrimidine] | – | – | – | – | – | – | – | – | – | – | EC50 (T. brucei Squib 427; Table 4, average of 2-6 independent determinations, read-out: T.b. brucei EC50): 7.83 µM; EC50 ([2]; Table 4, average of 2-6 independent determinations, read-out: T.b. rhod. EC50): 6.79 µM; EC50 (MRC-5 fibroblasts; Table 4): 7.53 µM; EC50 (MRC-5 fibroblasts; Table 5): 7.53 µM; EC50 ([4]; Table 5, average of 2-4 independent replicates): 2.48 µM; EC50 ([5]; Table 6): 0.58 µM
COc1ccc(-c2cn([C@@H]3O[C@H](CO)C[C@H]3O)c3ncnc(N)c23)cc1 [FH8494, 4-amino-5-(4-methoxyphenyl)-N7-(3′-deoxy-β-D-ribofuranosyl)-pyrrolo[2,3-d]pyrimidine] | – | – | – | – | – | – | – | – | – | – | EC50 (T. brucei Squib 427; [12]): 3.7 µM; EC50 [2, 13]: 1.2 µM; EC50 (MRC-5 fibroblasts; Table 1): 24.3 µM; EC50 (MRC-5 fibroblasts; Table 2): 24.3 µM; EC50 [4, 14]: 2.4 µM; EC50 ([5]; Table 3): 0.73 µM
Nc1ncnc2c1c(-c1ccc(OC(F)(F)F)cc1)cn2[C@@H]1O[C@H](CO)C[C@H]1O [FH9577, 4-amino-5-(4-trifluoromethoxyphenyl)-N7-(3′-deoxy-β-D-ribofuranosyl)-pyrrolo[2,3-d]pyrimidine] | – | – | – | – | – | – | – | – | – | – | EC50 (T. brucei Squib 427; [12]): 24.5 µM; EC50 [2, 13]: 9.8 µM; EC50 (MRC-5 fibroblasts; Table 1): 40.4 µM; EC50 (MRC-5 fibroblasts; Table 2): 40.4 µM; EC50 [4, 14]: 1.39 µM; EC50 ([5]; Table 3): 0.79 µM
CC[n+]1c(-c2ccccc2)c2cc(N/N=N/c3cccc(C(=N)N)c3)ccc2c2ccc(N)cc21 [Isometamidium] | 0.56 ± 0.13 µM | 3.1 ± 0.5 µM | 0.75 ± 0.14 µM | 1.2 | – | – | – | – | – | – | EC50 [1]: 0.65 ± 0.085 µM; RF (resistance factor) B48 (T. b. brucei B48): 0.85; RF (resistance factor) ISMR1 (T. b. brucei ISMR1): 4.81
Nc1ncnc2c1c(-c1ccc(F)cc1)cn2[C@@H]1O[C@H](CO)[C@@H](O)[C@H]1O [MS1001, 4-amino-5-(4-fluorophenyl)-N7-(β-D-ribofuranosyl)-pyrrolo[2,3-d]pyrimidine] | – | – | – | – | 8.81 µM | 14.7 µM | > 64 µM | > 64 µM | 0.49 µM | 0.11 µM | EC50 (T. brucei Squib 427; [11]): < 10 µM; melting point: 145 to 148 °C (dec.)
N=C(N)c1ccc(OCCCCCOc2ccc(C(=N)N)cc2)cc1 [Pentamidine] | 0.99 ± 0.16 µM | 0.14 ± 0.04 µM | 0.018 ± 0.002 µM | 1.8 | – | – | – | – | – | – | EC50 ([1]; reference cell line): 0.011 ± 0.001 µM
Cc1ccc(C(=O)Nc2ccc(S(=O)(=O)O)c3cc(S(=O)(=O)O)cc(S(=O)(=O)O)c23)cc1NC(=O)c1cccc(NC(=O)Nc2cccc(C(=O)Nc3cc(C(=O)Nc4ccc(S(=O)(=O)O)c5cc(S(=O)(=O)O)cc(S(=O)(=O)O)c45)ccc3C)c2)c1 [Suramin, reference compound] | – | – | – | – | – | – | – | – | – | – | EC50 (T. brucei Squib 427; Trypanosoma brucei, Table 1, average of 2-4 independent determinations, read-out: T. brucei brucei EC50): 0.05 µM; EC50 (T. brucei Squib 427; Trypanosoma brucei, Table 4, average of 2-6 independent determinations, read-out: T.b. brucei EC50): 0.05 µM; EC50 ([2]; Trypanosoma brucei, RHODESIENSE, Table 1, average of 2-4 independent determinations, read-out: T. brucei rhod. EC50): 0.04 µM; EC50 ([2]; Trypanosoma brucei, RHODESIENSE, Table 4, average of 2-6 independent determinations, read-out: T.b. rhod. EC50): 0.04 µM; clinical symptoms of trypanosomiasis / parasitemia (T. b. brucei Squib 427): no symptoms nor parasitemia developed
Nc1ncnc2c1c(-c1ccccc1)cn2[C@@H]1O[C@H](CO)[C@@H](O)[C@H]1O [TH1004, 4-amino-5-phenyl-N7-(β-D-ribofuranosyl)-pyrrolo[2,3-d]pyrimidine] | – | – | – | – | 32.3 µM | 4.1 µM | 56.2 µM | 56.2 µM | 3.44 µM | 0.43 µM | –
Nc1ncnc2c1c(-c1ccccn1)cn2[C@@H]1O[C@H](CO)[C@@H](O)[C@H]1O [TH1008, 4-amino-5-(pyrid-2-yl)-N7-(β-D-ribofuranosyl)-pyrrolo[2,3-d]pyrimidine] | 0.27 ± 0.04 µM | 0.43 ± 0.07 µM | 0.4 ± 0.09 µM | 2.4 | 0.36 µM | 0.031 µM | – | – | 5.02 µM | – | anti-trypanosomal activity against T. brucei, in words (T. brucei Squib 427): nanomolar antitrypanosomal activity; selectivity index (SI) for T. b. brucei (T. brucei Squib 427): 50; selectivity index for T. b. rhodesiense ([2]; MRC-5 versus T. b. rhodesiense): ~500; EC50 [1]: 0.17 ± 0.04 µM; RF (resistance factor) B48 (T. b. brucei B48): 1.6; RF (resistance factor) ISMR1 (T. b. brucei ISMR1): 2.5; detectability of parasites in the peripheral blood (T. b. brucei Squib 427; 25 mg/kg PO b.i.d. for 5 days): undetectable from 8 dpi onwards; parasites in the peripheral blood, mean Log10 (T. b. brucei Squib 427; 4 dpi, 25 mg/kg PO b.i.d. for 5 days): 7.5; parasitological cure (sub-inoculation in naive mice) (T. b. brucei Squib 427; animals surviving until day 21 post infection): total parasitological cure; clinical symptoms of trypanosomiasis / parasitemia (T. b. brucei Squib 427): no clinical symptoms of trypanosomiasis were observed; adverse drug effects (T. b. brucei Squib 427; mice, 5 days treatment): No signs of adverse drug effects were observed
Cc1ccc(-c2cn([C@@H]3O[C@H](CO)[C@@H](O)[C@H]3O)c3ncnc(N)c23)cc1 [TH1011, 4-amino-5-(4-methylphenyl)-N7-(β-D-ribofuranosyl)-pyrrolo[2,3-d]pyrimidine] | – | – | – | – | 29.1 µM | – | 26.2 µM | 26.2 µM | 1.5 µM | 0.06 µM | melting point: 165 °C

Reference: US11072628B2, “Nucleoside analogues for the treatment of parasitic infections” (UNIVERSITEIT GENT, priority 2017, dated 2021)
